Entries after “also recorded” stand apart in the source; their conditions may differ.
Columns and labels:
[1] = in vivo; cited from earlier work
C57BL/6J mice = assay: Ozone-induced AHR, total lung resistance to methacholine (FlexiVent); type: in vivo; settings: 50 μl instilled 1 hour before and 23 hours after acute ozone exposure; AHR 24 hours after ozone; vs vehicle
Description: Exposure Protocol: C57BL/6J, CD44−/−, IaI−/− or HAS2 transgenic mice (mice that overexpress HAS2) were exposed to either Hepa-filtered air (FA) or ozone. Animals were housed in cages with low-endotoxin bedding, and given water and chow ad libitum. Ozone exposures were two parts per million (ppm) for three hours. The selection of ozone concentration levels in the mouse was based on similar biological responses observed in human exposure studies and published deposition fraction data for 03 in rodent models (Wiester et al., Toxicol Appl Pharmacol 96(1):140-146, 1988). Exposures were performed in 55-liter Hinner chambers with individual animal slots. […] Chamber ozone concentration was monitored continuously with a UV light photometer (1003AH, Dasibi, Glendale, Calif.). […]
HA challenge: Sterile, endotoxin-free (0.00008 EU/ml) high molecular weight hyaluronan (HMW-HA) (Healon, AMO, Santa Ana, Calif.) was reconstituted at 0.5 mg/ml in 0.02 M acetate/0.15 M sodium chloride, pH 6.0. […] In some experiments, 50 μl of HMW-HA, sHA, or vehicle were instilled oropharyngeally into isoflurane-anesthetized mice, and AHR was measured invasively 2-4 hours later. In other experiments, 50 μl of HMW-HA or vehicle was instilled 1 hour before and 23 hours after acute ozone exposure, and AHR was measured invasively 24 hours after ozone exposure. […]

naive C57BL/6J mice [2] = assay: Lung lavage cells after sHA instillation; type: in vivo; settings: compared to vehicle
Procedure: (§1) HA challenge: Sterile, endotoxin-free (0.00008 EU/ml) high molecular weight hyaluronan (HMW-HA) (Healon, AMO, Santa Ana, Calif.) was reconstituted at 0.5 mg/ml in 0.02 M acetate/0.15 M sodium chloride, pH 6.0. For the production of low molecular weight (also known as short-fragment) hyaluronan (sHA), healon was sonicated on ice. Sizes were confirmed by electrophoresis according to known methods (Lee and Cowman Anal Biochem 219(2):278-287, 1994). In some experiments, 50 μl of HMW-HA, sHA, or vehicle were instilled oropharyngeally into isoflurane-anesthetized mice, and AHR was measured invasively 2-4 hours later. In other experiments, 50 μl of HMW-HA or vehicle was instilled 1 hour before and 23 hours after acute ozone exposure, and AHR was measured invasively 24 hours after ozone exposure.
Whole lung lavage: Whole lung lavage was performed according to previously described methods (Hollingsworth et al., Am J Respir Crit Care Med 170(2):126-132, 2004). Supernatants were stored at −70° C.

naive C57BL/6J mice [3] = assay: HA challenge: oropharyngeal instillation of hyaluronan into naive mice, AHR measured invasively; type: in vivo; settings: 50 μl of 0.5 mg/ml oropharyngeal, AHR 2-4 hours later, compared to vehicle
Procedure: as §1
(§2) Airway Physiology: Twenty four hours after the beginning of exposure, tracheas of anesthetized mice (pentobarbital sodium, 60 mg/kg i.p.) were surgically dissected and intubated, mice were paralyzed (pancuronium bromide, […] i.v.) and ventilated with a computer-controlled small animal ventilator (FlexiVent™, SCIREQ, Montreal, Canada) at a tidal volume of 7.5 ml/kg and a positive end-expiratory pressure of 3 cm H2O. Forced oscillation was used for measurements of respiratory mechanics. […]

CD44-deficient mice = assay: HA challenge in CD44-deficient mice, AHR; type: in vivo; settings: sHA instillation
Procedure: as §1, §2

Q: For “high molecular weight hyaluronan [HMW-HA]”, which “bronchoconstrictive response in exercise-induced asthma” value [1] is on record?
A: attenuate the bronchoconstrictive response

Q: And the “ozone-induced AHR with hyaluronan instilled before and after ozone” value (C57BL/6J mice)?
A: significantly ameliorates AHR; also recorded: significant attenuation of AHR

Q: Which “total cells or cell composition in lung lavage fluid after instillation” value (naive C57BL/6J mice [2]) does the source give for short-fragment hyaluronan [sHA] here?
A: significant changes in total cells or cell composition in the lung lavage fluid were not observed; also recorded: a significant change was not observed in any cell type

Q: And the “induction of AHR in naive mice” value (naive C57BL/6J mice [3])?
A: induced AHR

Q: And the “sHA-induced AHR in CD44-deficient mice compared to C57BL/6” value (CD44-deficient mice)?
A: resistant to sHA-induced AHR
